Patent publication US11718604B2, “4-amino-6-(1,3-benzodioxole)picolinates and their use as herbicides” (Dow AgroSciences LLC, priority 2018, dated 2023)

Tests used:
Format in all cases: in vivo
[1] = system: ECHCG: barnyardgrass (Echinochloa crus-galli); assay: Post-emergent herbicidal test, barnyardgrass; settings: post-emergence, 336 h, 14 days after application, read-out: Visual Growth Reduction (%) 14 Days After Application ECHCG; for pest or weed control at 17.5 g/ha: 17.5 g ai/ha; for pest or weed control at 35 g/ha: 35 g ai/ha; for pest or weed control at 70 g/ha: 70 g ai/ha; for pest or weed control at 140 g/ha: 140 g ai/ha
Procedure, shortened: (§1)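 Greenhouse-grown plants at the first or second true leaf stage (7-21 d, ~15 h photoperiod, 23-29° C day) were sprayed overhead at 187 L/ha with compound in acetone/DMSO-based spray solution containing crop oil concentrate and surfactant. Injury was scored visually after 14 d, 0-100% versus untreated plants.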

[2] = system: CIRAR: Canada thistle (Cirsium arvense); assay: Post-emergent herbicidal test, Canada thistle; settings: post-emergence, 336 h, 14 days after application, read-out: Visual Growth Reduction (%) 14 Days After Application CIRAR; for pest or weed control at 17.5 g/ha: 17.5 g ai/ha; for pest or weed control at 35 g/ha: 35 g ai/ha; for pest or weed control at 70 g/ha: 70 g ai/ha; for pest or weed control at 140 g/ha: 140 g ai/ha
Procedure, shortened: as §1

[3] = system: DIGSA: large crabgrass (Digitaria sanguinalis); assay: Post-emergent herbicidal test, large crabgrass; settings: post-emergence, 336 h, 14 days after application, read-out: Visual Growth Reduction (%) 14 Days After Application DIGSA; for pest or weed control at 17.5 g/ha: 17.5 g ai/ha; for pest or weed control at 35 g/ha: 35 g ai/ha; for pest or weed control at 70 g/ha: 70 g ai/ha; for pest or weed control at 140 g/ha: 140 g ai/ha
Procedure, shortened: as §1

[4] = system: SORVU: shattercane (Sorghum bicolor); assay: Post-emergent herbicidal test, shattercane; settings: post-emergence, 336 h, 14 days after application, read-out: Visual Growth Reduction (%) 14 Days After Application SORVU; for pest or weed control at 17.5 g/ha: 17.5 g ai/ha; for pest or weed control at 35 g/ha: 35 g ai/ha; for pest or weed control at 70 g/ha: 70 g ai/ha; for pest or weed control at 140 g/ha: 140 g ai/ha
Procedure, shortened: as §1

[5] = system: IPOHE: ivyleaf morningglory (Ipomoea hederacea); assay: Post-emergent herbicidal test, ivyleaf morningglory; settings: post-emergence, 336 h, 14 days after application, read-out: Visual Growth Reduction (%) 14 Days After Application IPOHE; for pest or weed control at 17.5 g/ha: 17.5 g ai/ha; for pest or weed control at 35 g/ha: 35 g ai/ha; for pest or weed control at 70 g/ha: 70 g ai/ha; for pest or weed control at 140 g/ha: 140 g ai/ha
Procedure, shortened: as §1

[6] = system: CYPES: yellow nutsedge (Cyperus esculentus); assay: Post-emergent herbicidal test, yellow nutsedge; settings: post-emergence, 336 h, 14 days after application, read-out: Visual Growth Reduction (%) 14 Days After Application CYPES; for pest or weed control at 17.5 g/ha: 17.5 g ai/ha; for pest or weed control at 35 g/ha: 35 g ai/ha; for pest or weed control at 70 g/ha: 70 g ai/ha; for pest or weed control at 140 g/ha: 140 g ai/ha
Procedure, shortened: as §1

[7] = system: BRSNN: oilseed rape, canola (Brassica napus); assay: Post-emergent herbicidal test, oilseed rape; settings: post-emergence, 336 h, 14 days after application, read-out: Visual Growth Reduction (%) 14 Days After Application BRSNN; for pest or weed control at 17.5 g/ha: 17.5 g ai/ha; for pest or weed control at 35 g/ha: 35 g ai/ha; for pest or weed control at 70 g/ha: 70 g ai/ha; for pest or weed control at 140 g/ha: 140 g ai/ha
Procedure, shortened: as §1

[8] = system: SETFA: giant foxtail (Setaria faberi); assay: Post-emergent herbicidal test, giant foxtail; settings: post-emergence, 336 h, 14 days after application, read-out: Visual Growth Reduction (%) 14 Days After Application SETFA; for pest or weed control at 17.5 g/ha: 17.5 g ai/ha; for pest or weed control at 35 g/ha: 35 g ai/ha; for pest or weed control at 70 g/ha: 70 g ai/ha; for pest or weed control at 140 g/ha: 140 g ai/ha
Procedure, shortened: as §1

[9] = system: EPHHL: wild poinsettia (Euphorbia heterophylla); assay: Post-emergent herbicidal test, wild poinsettia; settings: post-emergence, 336 h, 14 days after application, read-out: Visual Growth Reduction (%) 14 Days After Application EPHHL; for pest or weed control at 17.5 g/ha: 17.5 g ai/ha; for pest or weed control at 35 g/ha: 35 g ai/ha; for pest or weed control at 70 g/ha: 70 g ai/ha; for pest or weed control at 140 g/ha: 140 g ai/ha
Procedure, shortened: as §1

[10] = system: VIOTR: wild violet (Viola tricolor); assay: Post-emergent herbicidal test, wild violet; settings: post-emergence, 336 h, 14 days after application, read-out: Visual Growth Reduction (%) 14 Days After Application VIOTR; for pest or weed control at 17.5 g/ha: 17.5 g ai/ha; for pest or weed control at 35 g/ha: 35 g ai/ha; for pest or weed control at 70 g/ha: 70 g ai/ha; for pest or weed control at 140 g/ha: 140 g ai/ha
Procedure, shortened: as §1

[11] = system: ABUTH: velvetleaf (Abutilon theophrasti); assay: Post-emergent herbicidal test, velvetleaf; settings: post-emergence, 336 h, 14 days after application, read-out: Visual Growth Reduction (%) 14 Days After Application ABUTH; for pest or weed control at 17.5 g/ha: 17.5 g ai/ha; for pest or weed control at 35 g/ha: 35 g ai/ha; for pest or weed control at 70 g/ha: 70 g ai/ha; for pest or weed control at 140 g/ha: 140 g ai/ha
Procedure, shortened: as §1

COC(=O)c1nc(-c2cccc3c2OCO3)c(F)c(N)c1Cl [Compound 2]
pest or weed control at 17.5 g/ha [1]: 0%
pest or weed control at 35 g/ha [1]: 0%
pest or weed control at 70 g/ha [1]: 0%
pest or weed control at 140 g/ha [1]: 0%
pest or weed control at 17.5 g/ha [2]: 60%
pest or weed control at 35 g/ha [2]: 100%
pest or weed control at 70 g/ha [2]: 98%
pest or weed control at 140 g/ha [2]: 98%
pest or weed control at 17.5 g/ha [3]: 0%
pest or weed control at 35 g/ha [3]: 0%
pest or weed control at 70 g/ha [3]: 0%
pest or weed control at 140 g/ha [3]: 0%
pest or weed control at 17.5 g/ha [4]: 0%
pest or weed control at 35 g/ha [4]: 0%
pest or weed control at 70 g/ha [4]: 0%
pest or weed control at 140 g/ha [4]: 0%
pest or weed control at 17.5 g/ha [5]: 0%
pest or weed control at 35 g/ha [5]: 0%
pest or weed control at 70 g/ha [5]: 10%
pest or weed control at 140 g/ha [5]: 25%
pest or weed control at 17.5 g/ha [6]: 0%
pest or weed control at 35 g/ha [6]: 0%
pest or weed control at 70 g/ha [6]: 10%
pest or weed control at 140 g/ha [6]: 30%
pest or weed control at 17.5 g/ha [7]: 30%
pest or weed control at 35 g/ha [7]: 40%
pest or weed control at 70 g/ha [7]: 85%
pest or weed control at 140 g/ha [7]: 90%
pest or weed control at 17.5 g/ha [8]: 0%
pest or weed control at 35 g/ha [8]: 0%
pest or weed control at 70 g/ha [8]: 0%
pest or weed control at 140 g/ha [8]: 0%
pest or weed control at 17.5 g/ha [9]: 0%
pest or weed control at 35 g/ha [9]: 0%
pest or weed control at 70 g/ha [9]: 0%
pest or weed control at 140 g/ha [9]: 0%
pest or weed control at 17.5 g/ha [10]: 0%
pest or weed control at 35 g/ha [10]: 0%
pest or weed control at 70 g/ha [10]: 0%
pest or weed control at 140 g/ha [10]: 10%
pest or weed control at 17.5 g/ha [11]: 50%
pest or weed control at 35 g/ha [11]: 60%
pest or weed control at 70 g/ha [11]: 75%
pest or weed control at 140 g/ha [11]: 95%

COC(=O)c1nc(-c2ccc(Cl)c3c2OC(F)(F)O3)c(F)c(N)c1Cl [Compound 6]
pest or weed control at 17.5 g/ha [1]: 0%
pest or weed control at 35 g/ha [1]: 0%
pest or weed control at 70 g/ha [1]: 3%
pest or weed control at 140 g/ha [1]: 3%
pest or weed control at 17.5 g/ha [2]: 70%
pest or weed control at 35 g/ha [2]: 77%
pest or weed control at 70 g/ha [2]: 85%
pest or weed control at 140 g/ha [2]: 88%
pest or weed control at 17.5 g/ha [3]: 0%
pest or weed control at 35 g/ha [3]: 0%
pest or weed control at 70 g/ha [3]: 0%
pest or weed control at 140 g/ha [3]: 0%
pest or weed control at 17.5 g/ha [4]: 0%
pest or weed control at 35 g/ha [4]: 2%
pest or weed control at 70 g/ha [4]: 10%
pest or weed control at 140 g/ha [4]: 23%
pest or weed control at 17.5 g/ha [5]: 0%
pest or weed control at 35 g/ha [5]: 3%
pest or weed control at 70 g/ha [5]: 3%
pest or weed control at 140 g/ha [5]: 10%
pest or weed control at 17.5 g/ha [6]: 30%
pest or weed control at 35 g/ha [6]: 25%
pest or weed control at 70 g/ha [6]: 25%
pest or weed control at 140 g/ha [6]: 60%
pest or weed control at 17.5 g/ha [7]: 80%
pest or weed control at 35 g/ha [7]: 82%
pest or weed control at 70 g/ha [7]: 92%
pest or weed control at 140 g/ha [7]: 97%
pest or weed control at 17.5 g/ha [8]: 0%
pest or weed control at 35 g/ha [8]: 0%
pest or weed control at 70 g/ha [8]: 0%
pest or weed control at 140 g/ha [8]: 3%
pest or weed control at 17.5 g/ha [9]: 2%
pest or weed control at 35 g/ha [9]: 0%
pest or weed control at 70 g/ha [9]: 2%
pest or weed control at 140 g/ha [9]: 7%
pest or weed control at 17.5 g/ha [10]: 3%
pest or weed control at 35 g/ha [10]: 12%
pest or weed control at 70 g/ha [10]: 30%
pest or weed control at 140 g/ha [10]: 53%
pest or weed control at 17.5 g/ha [11]: 75%
pest or weed control at 35 g/ha [11]: 77%
pest or weed control at 70 g/ha [11]: 80%
pest or weed control at 140 g/ha [11]: 83%
